Consider 39 molecules from patent publication US9724351B2, “Compounds for the treatment of paramoxyvirus viral infections” (priority 2012, dated 2017).

For data set [1], the system named is Respiratory Syncytial Virus (RSV) long strain (ATCC#VR-26). In words: RSV Antiviral Assay (CPE reduction assay). The class given is cell-based. The note with it: human respiratory syncytial virus, 120 h; HEp-2 cells infected with RSV long strain, 5 days, CCK-8 readout; bins (Table 2: less than 1 μM; Table 3: equal to or higher than 1 μM and less than 50 μM); read-out: 50% effective concentration (EC50). In short, it runs like this:
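HEp-2 cells infected with 100 TCID50 RSV long strain per well, compounds from 100 μM or 1 μM in 9-point ⅓ dilutions, duplicates, 1% DMSO. After 5 days at 37 °C, viable cells measured by CCK-8 (A450, 630 nm background); EC50 by regression on mean O.D.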

Data set [2] in a line: Cytotoxicity Determination. The class given is cell-based. As to conditions: human, HEp-2 cells, without addition of virus, CCK-8 readout, bins (Table 4: greater than 100 μM; Table 5: equal to or less than 100 μM and greater than 10 μM), read-out: 50% cytotoxicity concentration (CC50). In short, it runs like this: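 Uninfected cells were exposed to compounds in duplicate over a 7-point ½ dilution series starting at 100 μM final, for 5 days at 37 °C, 5% CO2. CCK-8 was then added for 3-4 h, and CC50 was calculated from optical density.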

Consider `COc1cc(C(=O)N[C@@H](C)C(=O)c2ccc(OC)c(-c3ccc(F)c(C(F)(F)F)c3)n2)ccc1OCCO` [Compound 1812], for which the EC50 in data set [1] was below 1 µM. The CC50 at 5 days in data set [2] lay within 10 to 100 µM.

Take `COc1cc(C(=O)NCC(=O)c2ccc(OC)c(-c3csc4c(F)cccc34)n2)ccc1OCCN` [Compound 1232]: in data set [1], the EC50 is below 1 µM. The CC50 at 5 days in data set [2] lay within 10 to 100 µM.

As for `CCN(CC)c1cccc(C(=O)NCC(=O)N/N=C(\C)c2csc3ccccc23)c1` [Compound 503], the EC50 in data set [1] was in the range of 1 to 50 µM. Moreover, the CC50 at 5 days in data set [2] is above 100 µM.

`COc1ccc(C(=O)NCC(=O)c2ccc(OC)c(-c3ccnc(Cl)c3)n2)cc1OC` [Compound 1536]: the EC50 in data set [1] is 1 to 50 µM. Moreover, the CC50 at 5 days in data set [2] was above 100 µM.

Consider `COc1ccc(C(=O)NCC(=O)c2ccc(OC)c(-c3ccc(C(=O)N4CCCCC4)cc3)n2)cc1OC` [Compound 1518], for which the EC50 in data set [1] was in the range of 1 to 50 µM. For the same molecule, the CC50 at 5 days in data set [2] is 10 to 100 µM.

Take `COc1cc(C(=O)NCC(=O)c2ccc(OC)c(-c3ccc(Cl)c(F)c3)n2)ccc1OCCO` [Compound 1612]: in data set [1], the EC50 is below 1 µM. Moreover, the CC50 at 5 days in data set [2] is above 100 µM.

Consider `COc1ccc(C(=O)NCC(=O)N2CCCN(c3csc4c(F)cccc34)C2=O)cc1OC` [Compound 2800], for which, in data set [1], the EC50 fell in the range of 1 to 50 µM. In addition, the CC50 at 5 days in data set [2] lay in the range of 10 to 100 µM.

Consider `COc1ccc(C(=O)NCC(=O)c2ccc(OC)c(-c3cccnc3C)n2)cc1OC` [Compound 1540], for which, in data set [1], the EC50 lay in the range of 1 to 50 µM. In data set [2], the CC50 at 5 days was above 100 µM.

Turning to `COc1cc(C(=O)CNC(=O)c2ccc(OC)c(OC)c2)nc(-c2ccc3c(c2)OCCO3)c1` [Compound 1402], the EC50 in data set [1] was in the range of 1 to 50 µM. The CC50 at 5 days in data set [2] was above 100 µM.

As for `COc1ccc(C(=O)NCC(=O)c2ccc(OC)c(-c3cccc(F)c3)n2)cc1OC` [Compound 1527], in data set [1], the EC50 is 1 to 50 µM. For the same molecule, in data set [2], the CC50 at 5 days is above 100 µM.

Consider `COc1cc(C(=O)NCC(=O)N(C)C(=O)N(C)c2csc3c(F)cccc23)ccc1OCCO` [Compound 2803], for which, in data set [1], the EC50 was in the range of 1 to 50 µM. In addition, in data set [2], the CC50 at 5 days is above 100 µM.

On to `COc1cc(C(=O)NCC(=O)c2ccc(OC)c(-c3csc4ccncc34)n2)ccc1OCCO` [Compound 1621], for which the EC50 in data set [1] was 1 to 50 µM. Moreover, in data set [2], the CC50 at 5 days is above 100 µM.

Regarding `CCNc1ccc(C(=O)NCC(=O)N/N=C(\C)c2csc3ccccc23)cc1OC` [Compound 508], the EC50 in data set [1] lay within 1 to 50 µM. In data set [2], the CC50 at 5 days is above 100 µM.

Turning to `COc1cc(NCCC(=O)N(C)/N=C/c2csc3c(F)cccc23)ccc1OCCO` [Compound 2305], the EC50 in data set [1] lay in the range of 1 to 50 µM. Moreover, the CC50 at 5 days in data set [2] lay within 10 to 100 µM.

As to `COc1ccc(C(=O)NCC(=O)c2ccc(OC)c(-c3cccc4c(F)cccc34)n2)cc1OC` [Compound 1522], the EC50 in data set [1] lay in the range of 1 to 50 µM. For the same molecule, the CC50 at 5 days in data set [2] is 10 to 100 µM.

As to `COc1cc(C(=O)N[C@@H](CCO)C(=O)c2ccc(OC)c(-c3csc4c(F)cccc34)n2)ccc1OCCO` [Compound 1803], in data set [1], the EC50 was below 1 µM. Besides, the CC50 at 5 days in data set [2] was 10 to 100 µM.

For the molecule `COc1cc(C(=O)NCC(=O)c2ccc(OC)c(-c3ccc(S(C)(=O)=O)cc3)n2)ccc1OCCO` [Compound 1604], the EC50 in data set [1] lay within 1 to 50 µM. Besides, the CC50 at 5 days in data set [2] was above 100 µM.

As to `COCC/C(=N\NC(=O)CNC(=O)c1ccc(OC)c(OC)c1O)c1csc2c(F)cccc12` [Compound 300], in data set [1], the EC50 was below 1 µM. Also, the CC50 at 5 days in data set [2] was 10 to 100 µM.

Consider `COCC/C(=N/NC(=O)CNC(=O)c1ccc(OC)c(OC)c1O)c1csc2c(F)cccc12` [Compound 400-21], for which the EC50 in data set [1] lay within 1 to 50 µM. For the same molecule, the CC50 at 5 days in data set [2] was above 100 µM.

On to `COc1cc(C(=O)NCC(=O)c2ccc(OC)c(-c3ccc(OC(F)(F)F)cc3)n2)ccc1OCCO` [Compound 1602], for which the EC50 in data set [1] was below 1 µM. Also, the CC50 at 5 days in data set [2] is above 100 µM.

On to `CCNc1ccc(C(=O)NCC(=O)N/N=C(\C)c2csc3ccccc23)cc1` [Compound 501], for which, in data set [1], the EC50 was 1 to 50 µM. For the same molecule, the CC50 at 5 days in data set [2] lay in the range of 10 to 100 µM.

For the molecule `COc1cc(C(=O)NCC(=O)c2cc(C)cc(-c3csc4c(F)cccc34)n2)ccc1OCCO` [Compound 1217], the EC50 in data set [1] is below 1 µM. Also, the CC50 at 5 days in data set [2] is above 100 µM.

As to `COc1cc(C(=O)NCC(=O)c2ccc(OC)c(-c3ccc(F)c(Cl)c3)n2)ccc1OCCN(C)C` [Compound 1314], the EC50 in data set [1] was in the range of 1 to 50 µM. Besides, in data set [2], the CC50 at 5 days lay within 10 to 100 µM.

As to `CCOc1cc(C(=O)NCC(=O)N/N=C(\C)c2csc3ccccc23)ccc1N(CC)CC` [Compound 509], the EC50 in data set [1] lay in the range of 1 to 50 µM. Further, the CC50 at 5 days in data set [2] lay within 10 to 100 µM.

Turning to `CCOc1ccc(C(=O)NCC(=O)N/N=C/c2csc3c(F)cccc23)cc1OC` [Compound 400-26], the EC50 in data set [1] was below 1 µM. Besides, the CC50 at 5 days in data set [2] was above 100 µM.

On to `COc1ccc(C(=O)NCC(=O)NN=C(c2ccccn2)c2ccccn2)cc1OC` [Compound 441], for which, in data set [1], the EC50 fell in the range of 1 to 50 µM. Moreover, in data set [2], the CC50 at 5 days is above 100 µM.

Turning to `CCCC/C(=N\NC(=O)CNC(=O)c1ccc(OC)c(OC)c1)c1csc2ccccc12` [Compound 423], in data set [1], the EC50 was below 1 µM. Further, the CC50 at 5 days in data set [2] is above 100 µM.

As to `COc1ccc(C(=O)NCC(=O)N/N=C/c2c(C)sc3ccccc23)cc1OC` [Compound 400], in data set [1], the EC50 was in the range of 1 to 50 µM. Also, in data set [2], the CC50 at 5 days lay within 10 to 100 µM.

Take `C/C(=N\NC(=O)CNC(=O)c1ccc(N2CCCC2)cc1)c1csc2ccccc12` [Compound 468]: the EC50 in data set [1] was in the range of 1 to 50 µM. Moreover, in data set [2], the CC50 at 5 days is above 100 µM.

`COc1ccc(C(=O)NCC(=O)c2ccc(OC)c(-c3ccc(N4CCOCC4)cc3)n2)cc1OC` [Compound 1506]: the EC50 in data set [1] lay within 1 to 50 µM. Also, in data set [2], the CC50 at 5 days lay within 10 to 100 µM.

For `COc1ccc(C(=O)NCC(=O)N/N=C/c2ccc3ccsc3c2)cc1OC` [Compound 496], in data set [1], the EC50 was in the range of 1 to 50 µM. In addition, the CC50 at 5 days in data set [2] is 10 to 100 µM.

Regarding `CCOc1ccc(C(=O)NCC(=O)N/N=C(\C)c2csc3cnccc23)cc1OC` [Compound 466], in data set [1], the EC50 is 1 to 50 µM. In addition, the CC50 at 5 days in data set [2] is above 100 µM.

`COc1cc(C(=O)NCC(=O)N/N=C/c2csc3c(F)cccc23)ccc1OCCO` [Compound 604]: the EC50 in data set [1] is below 1 µM. Further, the CC50 at 5 days in data set [2] was above 100 µM.

As to `COc1ccc(C(=O)NCC(=O)c2cccc(-n3cnc4c(F)cccc43)n2)cc1OC` [Compound 2600], the EC50 in data set [1] lay within 1 to 50 µM. Further, the CC50 at 5 days in data set [2] was 10 to 100 µM.

As for `COc1ccc(C(=O)NCC(=O)c2nc(-c3csc4c(F)cccc34)cc(C(C)C)c2OC)cc1OC` [Compound 1341], the EC50 in data set [1] was 1 to 50 µM. The CC50 at 5 days in data set [2] is above 100 µM.

Turning to `COc1cc(C(=O)NCC(=O)c2cc(CO)cc(-c3ccc(F)c(Cl)c3)n2)ccc1OCC1CC1` [Compound 3800], in data set [1], the EC50 is below 1 µM. Also, the CC50 at 5 days in data set [2] was in the range of 10 to 100 µM.

`COc1cc(C(=O)NCC(=O)N(C)C(=O)Nc2csc3c(F)cccc23)ccc1OCCO` [Compound 2802]: the EC50 in data set [1] lay within 1 to 50 µM. Besides, in data set [2], the CC50 at 5 days was above 100 µM.

Regarding `COc1cc(C(=O)NCC(=O)c2ccc(OC)c(-c3ccc(F)c(C)c3)n2)ccc1OCCO` [Compound 1325], in data set [1], the EC50 was below 1 µM. Moreover, the CC50 at 5 days in data set [2] is above 100 µM.

On to `COc1ccc(C(=O)NCC(=O)N/N=C/c2c(C)n(C)c3ccccc23)cc1OC` [Compound 486], for which the EC50 in data set [1] lay in the range of 1 to 50 µM. Also, the CC50 at 5 days in data set [2] fell in the range of 10 to 100 µM.
